In publication PMC5712521, “Dendrogenin A drives LXR to trigger lethal autophagy in cancers” (Nature Communications, 2017):

What was measured:
SKMEL-28 cells [1] = experiment: Immunoblot densitometry (LC3-II); assay type: cell-based, human; conditions: SKMEL-28, 24 h; 2.5 µM DDA, 10 µM 22(R)HC, 100 nM TO
Procedure: Immunoblotting was carried out as described previously. Proteins were separated on SDS-PAGE gels, electro-transferred onto polyvinylidene difluoride membranes and incubated overnight at 4 °C with the following antibodies: anti-Atg3, anti-Atg5 (D1G9), anti-Atg7 (D12B11), anti-Beclin (D40C5), anti-caspase-3 (Cell Signaling), anti-Bcl-2 (Millipore), anti-Bax (Millipore), anti-LC3 (Sigma-Aldrich), anti-LXRα (SantaCruz), anti-LXRβ (SantaCruz), anti-Nur77 (Active motif), anti-NOR1 (R&D systems), anti-PARP (Cell Signaling), anti-Vps34 (Cell Signaling), or anti-Actin (Millipore). For visualization, an ECL plus kit (Amersham Biosciences) was used, and chemiluminescence was measured by autoradiography (Supplementary Fig. 9). Specific bands were quantified with ImageQuant software.

B16F10 cells [2] = experiment: RT-qPCR of LXR-responsive genes; assay type: cell-based, mouse; conditions: 8 h, 2.5 µM DDA, 10 µM 22(R)HC, 1 µM GW, 100 nM TO, vs vehicle
Procedure: (§1) Total RNA was extracted from tumor cells or MEFs using an RNA Extraction kit (Qiagen) or Trizol (Invitrogen), respectively, and was quantified with NanoDrop. Complementary DNA (cDNA) synthesis was performed with 1 μg RNA iScript Reverse Transcriptase (Bio-Rad). 25 ng cDNA was amplified using SyBR Supermix (Bio-Rad). RNA expression of the different genes of interest (Supplementary Tables 1, 2) were determined using the ΔΔCT method, where the difference in the threshold cycle (ΔCT) values of the target gene and the housekeeping gene for each sample was normalized to the ΔCT value of the untreated sample.
(§2) Supplementary Fig. 4. a R egulat ion of LXR-responsive genes b y D DA and other k nown LXR
(§3) ligands in B16F10 and SKMEL- 28 cells transfected with s iRN A targeting LXRβ ( siLXRβ) or
(§4) with contro l siRN A scram ble (siSC). Cells were treated for 8 h with either solvent vehicle, 2.5
(§5) µM DD A, 10 µM 22(R) hydrox ycholesterol (22(R)HC), 1 µM GW 3965 (GW ) or 100 nM
(§6) T O901317 (T O). […]

SKMEL-28 cells [3] = experiment: DDA-induced cytotoxicity (cell death); assay type: cell-based; conditions: SKMEL-28; 5 µM 22(R)HC, 0.5 µM TO, 1 µM GW
Procedure: (§7) Melanoma cells were seeded into 6-well plates at 60,000 cells per well and AML cells at 250,000 cells/ml. The cells were then treated with control solvent vehicle (1/1000 ethanol in water) or DDA. Where indicated, treated cells were incubated in the presence or absence of each inhibitor for time shown. Cell death was determined by the trypan blue exclusion assay. Cells were scraped and resuspended in trypan blue solution (0.25% (w/v) in PBS) and counted in a Malassez cell under light microscopy. Cell viability was then quantified by counting viable (trypan blue-negative) and dead cells (trypan blue-positive).
(§8) Supplementary Fig. 1. a DDA inhibited m elanom a colony form ation. Melanom a cells were […]
(§9) a 0.5% solution of crystal violet in water and analyzed by microscopy. Images are representative of 5 independent experiments. b Evaluation of DDA-induced cytotoxicity (cytotox) and clonogenicity (clono) inhibition in a subset of human (H) and mouse (M) m elanom a cell lines. T he BRaf status in m elanom a cells lines is shown. […]

B16F10 cells [4] = experiment: DDA-induced cytotoxicity (cell death); assay type: cell-based; conditions: B16F10; 5 µM 22(R)HC, 0.5 µM TO, 1 µM GW
Procedure: as §7, §8, §9

SKMEL-28 cells [5] = experiment: RT-qPCR of LXR-responsive genes; assay type: cell-based, human; conditions: 8 h, 2.5 µM DDA, 10 µM 22(R)HC, 1 µM GW, 100 nM TO, vs vehicle
Procedure: as §1, §2, §3, §4, §5, §6

## O=S(=O)(c1ccccc1)N(CC(F)(F)F)c1ccc(C(O)(C(F)(F)F)C(F)(F)F)cc1 [TO, TO901317]
SKMEL-28 cells [1]
  LC3-II protein, densitometry relative to control: 0.9
B16F10 cells [2]; B16F10, siCT
  ABCA1 mRNA: 8.5±1.8 fold
  ABCG1 mRNA: 1.1±0.3 fold
  ABCG5 mRNA: 3.6±0.6 fold
  ABCG8 mRNA: 1.5±0.1 fold
  LC3A mRNA: 1.0±0.3 fold
  LC3B mRNA: 1.3±0.1 fold
  LDLR mRNA: 1.7±0.1 fold
  NOR1 mRNA: 1.9±0.2 fold
  Nur77 mRNA: 0.9±0.3 fold
  SCD1 mRNA: 1.6±0.2 fold
  SREBP1 mRNA: 3.3±0.1 fold
  SULT2b1b mRNA: 3.2±0.2 fold
B16F10 cells [2]; B16F10, siLXRβ
  ABCA1 mRNA: 2.0±0.4 fold
  ABCG1 mRNA: 1.0±0.1 fold
  ABCG5 mRNA: 1.0±0.2 fold
  ABCG8 mRNA: 1.1±0.2 fold
  LC3A mRNA: 1.0±0.2 fold
  LC3B mRNA: 1.2±0.3 fold
  LDLR mRNA: 1.0±0.2 fold
  NOR1 mRNA: 0.7±0.3 fold
  Nur77 mRNA: 0.6±0.2 fold
  SCD1 mRNA: 0.9±0.1 fold
  SREBP1 mRNA: 0.9±0.2 fold
  SULT2b1b mRNA: 1.2±0.3 fold
SKMEL-28 cells [3]
  cell death: no impact on cell death
B16F10 cells [4]
  cell death: no impact on cell death
SKMEL-28 cells [5]; SKMEL-28, siCT
  ABCA1 mRNA: 4.2±1.2 fold
  ABCG1 mRNA: 2.8±0.5 fold
  ABCG5 mRNA: 3.1±0.5 fold
  ABCG8 mRNA: 1.5±0.1 fold
  LC3A mRNA: 0.8±0.1 fold
  LC3B mRNA: 0.9±0.2 fold
  LDLR mRNA: 1.0±0.2 fold
  NOR1 mRNA: 1.7±0.1 fold
  Nur77 mRNA: 1.1±0.2 fold
  SCD1 mRNA: 1.8±0.2 fold
  SREBP1 mRNA: 1.8±0.3 fold
  SULT2B1b mRNA: 1.8±0.2 fold
SKMEL-28 cells [5]; SKMEL-28, siLXRβ
  ABCA1 mRNA: 2.2±0.3 fold
  ABCG1 mRNA: 1.1±0.2 fold
  ABCG5 mRNA: 1.1±0.1 fold
  ABCG8 mRNA: 0.8±0.1 fold
  LC3A mRNA: 0.9±0.1 fold
  LC3B mRNA: 0.9±0.1 fold
  LDLR mRNA: 0.9±0.1 fold
  NOR1 mRNA: 1.0±0.2 fold
  Nur77 mRNA: 1.1±0.2 fold
  SCD1 mRNA: 1.2±0.2 fold
  SREBP1 mRNA: 1.3±0.2 fold
  SULT2B1b mRNA: 1.3±0.2 fold
